# US20130189255A1, “FUSIONS AND CONJUGATES OF INSULINOTROPIC AGENTS” (GLAXO GROUP LIMITED, priority 2008, published 2013)
# Like-named read-outs stand apart in the source and are kept apart here. Marks after values point to notes of the source that are not given here.
# Assays:
# [1] = test system: diet induced obese (DIO) mice; experiment: Diet induced obese (DIO) mouse model of obesity; assay type: in vivo; conditions: 0.01, 0.1, 1 mg/Kg sc, 10 days, compared to DOM7h-14 control
# Description: This may be predictive for humans. Male C57B1/6 mice (purchased from Taconic) were fattened on 60% kcal high fat irradiated diet for 12 wks and then transferred to the in-house facility. Upon arrival, the mice were individually housed on alpha-dri bedding in a temperature and humidity controlled room (70-72° F., Humidity=48-50%, 5 AM/5 PM light cycle). The diet was changed to 45% high fat diet and the animals acclimated for 18 days. Prior to administration of test compound, mice were injected subcutaneously with saline once daily for three days and food consumption monitored. Mice were blocked and grouped such that body weight and food consumption were not different between or within groups.
# Daily food consumption and body weight were measured daily for 10 days. […] It was therefore concluded that the data from this mouse study supports the hypothesis that DAT0115 would be a good clinical candidate.
# HSA = HSA (Homo sapiens, UniProt P02768); assay type: binding
# Description: The analysis was performed using a streptavidin chip (SA) coated with biotinylated serum albumin. 200-1000 resonance units (RUs) of each serum albumin was immobilised on the chip. Flow cell 1 was uncoated, flow cell 2 was coated with HSA, flow cell 3 was coated with RSA and flow cell 4 was coated with CSA. A range of concentrations of fusion was prepared (in the range 15.6 nM to 2 μM by dilution into BIACORE HBS-EP buffer (0.01M HEPES, pH7.4, 0.15M NaCl, 3 mM EDTA, 0.005% surfactant P20) and flowed across the BIACORE chip.
# Affinity (KD) was calculated from the BIACORE traces by fitting on-rate and off-rate curves to traces generated by concentrations of dAb in the region of the KD.
# db/db mice = experiment: Oral glucose tolerance test (OGTT) in db/db mouse model of type II diabetes; assay type: in vivo
# Source text: Animals were sorted by decreasing glucose levels three days prior to the start of the experiment and then blocked. One animal within each block was then assigned to each of the 26 study groups. This ensured similar mean starting glucose level in each of the study groups.
# [2] = mouse, in vivo, 1 mg/kg
# Description: This was followed by ion exchange chromotography on a Resource S column using a 0-1M salt gradient in 20 mM acetate pH5.0. Fractions containing the desired protein were then combined and buffer exchanged into 100 mM NaCl, 20 mM citrate pH6.2. Protein was filter sterilised, buffer exchanged and endotoxin removed ant tested prior to use in vivo. […] At predose, 0.25, 0.5, 1, 4, 7, 12, 24, 36, 48 and 60 hours after dosing for the iv doses and predose, 0.5, 1, 4, 7, 12, 24, 36, 48 and 60 hours after dosing for the sc doses blood samples were collected by terminal bleed and plasma prepared. Plasma samples were frozen and later defrosted for analysis of DAT0115, DAT0116 or DAT0117 levels as appropriate by solid phase extraction and LC/MS/MS to detect the presence of a fragment of the protein (from the exendin-4 section of the protein). Calculated plasma levels were then used to fit pharmacokinetic parameters using WinNonLin software. Half life after subcutaneous and intravenous administration and bioavailability is outlined in the table below. It was concluded from the results (see table 7 below) that all three compounds show desirable pharmacokinetic parameters in a mouse model of type II diabetes.
# human GLP-1 receptor = target: T1, human GLP-1 receptor (Homo sapiens, UniProt P43220); experiment: GLP-1 receptor binding assay (GLP-1R BA), CHO 6CRE GLP1R luciferase reporter cells; assay type: cell-based
# T1 construct: expressed in transfected cells; host or cells: CHO K1 (CHO 6CRE GLP1R)
# T1 sequence (P43220 24-463): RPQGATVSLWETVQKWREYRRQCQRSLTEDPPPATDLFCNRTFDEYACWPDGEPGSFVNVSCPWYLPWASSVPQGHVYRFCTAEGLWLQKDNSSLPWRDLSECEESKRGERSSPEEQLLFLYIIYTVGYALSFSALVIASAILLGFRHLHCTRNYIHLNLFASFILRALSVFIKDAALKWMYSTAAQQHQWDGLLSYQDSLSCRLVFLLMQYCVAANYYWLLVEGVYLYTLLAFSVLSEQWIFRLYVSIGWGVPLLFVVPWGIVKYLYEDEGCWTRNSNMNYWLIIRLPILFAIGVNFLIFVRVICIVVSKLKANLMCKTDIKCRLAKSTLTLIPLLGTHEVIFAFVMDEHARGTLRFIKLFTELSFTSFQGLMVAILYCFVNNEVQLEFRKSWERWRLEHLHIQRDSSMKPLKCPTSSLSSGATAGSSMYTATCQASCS
# Description: Fusions were buffer exchanged into 100 mM […], 20 mM citrate pH 6.2. […] Suspension culture was maintained for 24 hours. Cells were then diluted into 15 mM HEPES buffer (obtainable from Sigma), containing 2 mM L glutamine (2.5×10^5 cells/ml) and dispensed into 384-well plates containing 10 ul/well of the compound to be assayed. After the addition of assay control, plates were returned to the incubator for 3 h at 37° C. and 5% CO2. After the incubation, steady glo luciferase substrate (obtainable from Promega) was added to the wells as described in the kit and the plates sealed with self-adhesive plate seals (Weber Marking Systems Inc. Cat. No. 607780). Plates were placed in the reader (Viewlux, Perkin Elmer) and pre-incubated for 5 minutes prior to reading the […] and plotting of results. Compound was assayed at a range of concentrations in the presence and absence of 10 uM albumin, allowing a dose response curve to be fitted with and without the albumin.
substance,measurement,setting,value
Exendin 4 (G4S linker)3 DOM7h-14 dAb fusion [DAT0115],body weight,[1],dose dependent reduction
same,food consumption,[1],dose dependent reduction
same,Kd,HSA,600 nM
same,timepoints out to which glucose AUC was significantly decreased compared to vehicle,db/db mice; 0.1 mg/Kg and 0.3 mg/Kg doses sc,≤ 24 h
same,percentage reduction in glucose AUC compared to vehicle,"db/db mice; 0.1 mg/kg sc, OGTT +5 hrs relative to dosing",60%*
same,percentage reduction in glucose AUC compared to vehicle,"db/db mice; 0.1 mg/kg sc, OGTT +24 hrs",36%*
same,percentage reduction in glucose AUC compared to vehicle,"db/db mice; 0.1 mg/kg sc, OGTT +48 hrs",28%
same,percentage reduction in glucose AUC compared to vehicle,"db/db mice; 0.1 mg/kg sc, OGTT +72 hrs",16%
same,percentage reduction in glucose AUC compared to vehicle,"db/db mice; 0.1 mg/kg sc, OGTT +96 hrs",−12%
same,percentage reduction in glucose AUC compared to vehicle,"db/db mice; 0.3 mg/kg sc, OGTT +24 hrs",59%*
same,percentage reduction in glucose AUC compared to vehicle,"db/db mice; 0.3 mg/kg sc, OGTT +48 hrs",26%
same,percentage reduction in glucose AUC compared to vehicle,"db/db mice; 0.3 mg/kg sc, OGTT +72 hrs",26%
same,timepoints out to which glucose AUC was significantly decreased compared to vehicle,db/db mice; 1 mg/Kg dose sc,≤ 72 h
same,percentage reduction in glucose AUC compared to vehicle,"db/db mice; 1 mg/kg sc, OGTT +5 hrs",76%*
same,percentage reduction in glucose AUC compared to vehicle,"db/db mice; 1 mg/kg sc, OGTT +24 hrs",50%*
same,percentage reduction in glucose AUC compared to vehicle,"db/db mice; 1 mg/kg sc, OGTT +48 hrs",37%*
same,percentage reduction in glucose AUC compared to vehicle,"db/db mice; 1 mg/kg sc, OGTT +72 hrs",41%*
same,percentage reduction in glucose AUC compared to vehicle,"db/db mice; 1 mg/kg sc, OGTT +96 hrs",12%
same,Bioavailability,[2],65%
same,Half-life after intravenous administration,[2]; iv,13.8
same,Half-life after subcutaneous administration,[2]; sc,18.6
same,EC50,"human GLP-1 receptor; read-out: GLP-1R BA (10 uM albumin) EC50 (pM) n = 2, presence of 10 uM albumin",35 pM
same,EC50,"human GLP-1 receptor; read-out: GLP-1R BA EC50 (pM) n = 3, absence of albumin",8.9 pM
